Legend:
[1] = target: T1, EGFR L858R (Homo sapiens, UniProt P00533, L858R); assay: Biochemical EGFR inhibition assay (Caliper mobility shift), EGFR L858R; conditions: biochemical Caliper mobility shift assay, EGFR L858R enzyme; read-out: Enz EGFR L858R IC50
T1 construct: purchased SignalChem E10-122BG
Outline: (§1)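 Kinase activity measured as phosphorylation of 2.5 µM 5-FAM-labelled peptide substrate in 100 mM HEPES pH 7.5, 10 mM MgCl2, 0.015% Brij-35, 1 mM DTT, 1.0% DMSO, at 1.0 mM ATP or ATP Km. Run at 25 °C to 10–20% conversion, stopped with EDTA; product resolved by mobility shift, apparent IC50 from percent activity vs log concentration.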

[2] = target: T2, EGFR (d746-750) (Homo sapiens, UniProt P00533, DEL746-750); assay: Biochemical EGFR inhibition assay (Caliper mobility shift), EGFR (d746-750); conditions: biochemical Caliper mobility shift assay, EGFR Exon 19-del enzyme; read-out: Enz EGFR Exon 19-del IC50
T2 construct: purchased SignalChem E10-122JG
T2 sequence (P00533 with tags, fused parts or gaps DEL746-750 limits assumed): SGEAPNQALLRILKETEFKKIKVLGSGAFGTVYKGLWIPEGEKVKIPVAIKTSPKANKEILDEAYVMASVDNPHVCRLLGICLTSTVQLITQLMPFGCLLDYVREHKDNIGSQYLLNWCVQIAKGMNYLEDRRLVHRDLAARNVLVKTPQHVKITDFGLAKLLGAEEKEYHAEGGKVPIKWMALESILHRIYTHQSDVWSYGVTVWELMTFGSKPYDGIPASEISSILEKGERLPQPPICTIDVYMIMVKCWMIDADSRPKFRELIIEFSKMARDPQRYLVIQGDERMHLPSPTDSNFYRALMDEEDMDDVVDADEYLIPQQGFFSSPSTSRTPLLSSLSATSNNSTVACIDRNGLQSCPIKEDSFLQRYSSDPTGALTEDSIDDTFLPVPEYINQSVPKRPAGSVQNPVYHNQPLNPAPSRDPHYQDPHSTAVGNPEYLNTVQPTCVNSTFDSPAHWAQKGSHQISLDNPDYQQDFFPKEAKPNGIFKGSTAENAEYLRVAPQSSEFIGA
Outline: as §1

[3] = target: intracellular phosphorylation of EGFR (Tyr1068) in PC-9 cells (Homo sapiens, UniProt P00533, DEL746-750); assay: PC-9 pEGFR AlphaLISA assay; type: cell-based; conditions: 4 hours incubation, read-out: Phos EGFR PC9 IC50
Chain of intracellular phosphorylation of EGFR (Tyr1068) in PC-9 cells (P00533 with tags, fused parts or gaps DEL746-750): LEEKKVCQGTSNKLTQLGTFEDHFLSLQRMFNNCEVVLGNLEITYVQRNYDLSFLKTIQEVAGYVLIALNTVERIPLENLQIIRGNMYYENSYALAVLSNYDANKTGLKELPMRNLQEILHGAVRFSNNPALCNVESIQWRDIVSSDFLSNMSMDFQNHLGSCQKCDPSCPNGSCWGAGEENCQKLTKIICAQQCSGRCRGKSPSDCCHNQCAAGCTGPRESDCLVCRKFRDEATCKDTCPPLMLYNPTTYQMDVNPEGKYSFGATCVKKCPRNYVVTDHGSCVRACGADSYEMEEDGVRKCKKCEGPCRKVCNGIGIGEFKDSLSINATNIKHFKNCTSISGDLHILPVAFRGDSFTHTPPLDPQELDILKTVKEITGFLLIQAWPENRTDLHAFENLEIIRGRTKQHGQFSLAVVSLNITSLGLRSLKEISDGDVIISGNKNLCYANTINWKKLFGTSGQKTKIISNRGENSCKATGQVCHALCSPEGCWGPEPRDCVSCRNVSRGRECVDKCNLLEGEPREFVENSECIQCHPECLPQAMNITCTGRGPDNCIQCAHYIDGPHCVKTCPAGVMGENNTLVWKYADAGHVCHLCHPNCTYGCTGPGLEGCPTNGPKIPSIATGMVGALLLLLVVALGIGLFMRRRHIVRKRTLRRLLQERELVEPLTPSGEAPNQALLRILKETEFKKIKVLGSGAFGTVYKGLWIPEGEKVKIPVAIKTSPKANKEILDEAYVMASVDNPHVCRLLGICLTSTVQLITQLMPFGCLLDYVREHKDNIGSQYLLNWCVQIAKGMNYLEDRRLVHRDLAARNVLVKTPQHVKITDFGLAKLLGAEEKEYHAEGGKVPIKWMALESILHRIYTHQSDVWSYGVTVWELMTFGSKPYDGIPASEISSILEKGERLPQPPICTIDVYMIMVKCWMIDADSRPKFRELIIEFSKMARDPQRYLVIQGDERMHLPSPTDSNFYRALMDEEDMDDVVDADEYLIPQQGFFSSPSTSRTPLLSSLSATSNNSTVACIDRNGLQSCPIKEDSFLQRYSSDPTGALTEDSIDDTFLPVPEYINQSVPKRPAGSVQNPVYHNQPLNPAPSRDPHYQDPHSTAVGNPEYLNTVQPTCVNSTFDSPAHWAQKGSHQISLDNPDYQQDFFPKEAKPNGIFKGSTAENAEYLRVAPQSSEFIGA
Outline: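 PC-9 cells (EGFR del746-750) in phenol-free DMEM/10% FBS, adhered overnight, then exposed to 10-point 4-fold compound dilutions for 4 h at 37 °C. Lysates assayed for pEGFR Tyr1068 by AlphaLISA SureFire Ultra; IC50 from percent pEGFR inhibition vs log concentration.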

T1 sequence (P00533 25-1210 L858R): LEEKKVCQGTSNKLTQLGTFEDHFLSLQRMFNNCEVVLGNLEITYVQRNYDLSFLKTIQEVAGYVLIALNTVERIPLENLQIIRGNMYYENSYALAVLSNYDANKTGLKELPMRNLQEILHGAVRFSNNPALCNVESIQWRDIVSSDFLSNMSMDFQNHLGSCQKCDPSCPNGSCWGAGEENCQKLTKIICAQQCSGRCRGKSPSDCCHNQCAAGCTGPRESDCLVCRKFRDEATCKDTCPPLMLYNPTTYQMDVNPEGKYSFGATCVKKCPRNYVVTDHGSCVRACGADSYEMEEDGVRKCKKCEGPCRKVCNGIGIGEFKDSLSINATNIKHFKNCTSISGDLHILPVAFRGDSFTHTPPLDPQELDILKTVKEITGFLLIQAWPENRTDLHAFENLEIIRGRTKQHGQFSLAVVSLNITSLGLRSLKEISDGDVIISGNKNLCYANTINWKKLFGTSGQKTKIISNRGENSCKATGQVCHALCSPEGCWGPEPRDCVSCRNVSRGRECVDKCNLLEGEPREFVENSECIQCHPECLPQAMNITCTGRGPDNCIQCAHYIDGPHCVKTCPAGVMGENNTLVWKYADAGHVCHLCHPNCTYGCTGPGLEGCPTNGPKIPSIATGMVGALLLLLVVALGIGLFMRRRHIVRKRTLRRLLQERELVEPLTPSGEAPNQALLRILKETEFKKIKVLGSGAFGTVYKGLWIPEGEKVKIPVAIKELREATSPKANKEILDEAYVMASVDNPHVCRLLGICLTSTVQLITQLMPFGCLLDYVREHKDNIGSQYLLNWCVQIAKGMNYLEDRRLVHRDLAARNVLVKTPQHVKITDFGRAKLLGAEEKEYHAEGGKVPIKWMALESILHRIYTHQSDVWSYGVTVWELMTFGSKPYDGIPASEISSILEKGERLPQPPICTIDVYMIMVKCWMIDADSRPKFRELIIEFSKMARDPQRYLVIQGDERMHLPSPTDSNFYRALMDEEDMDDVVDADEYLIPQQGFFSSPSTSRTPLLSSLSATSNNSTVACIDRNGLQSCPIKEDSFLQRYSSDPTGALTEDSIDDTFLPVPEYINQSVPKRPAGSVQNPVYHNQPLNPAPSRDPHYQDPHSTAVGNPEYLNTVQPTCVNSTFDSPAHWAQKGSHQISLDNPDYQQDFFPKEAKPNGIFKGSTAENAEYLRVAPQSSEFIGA

Row | SMILES | IC50 [1] [nM] | IC50 [2] [nM] | IC50 [3] [nM]
1 | Cn1cc(-c2cc(OCCN3CCC3)c3c(Nc4ccc5ncsc5c4)ncnc3c2)cn1 [Example 409, N-(5-(2-(azetidin-1-yl)ethoxy)-7-(1-methyl-1H-pyrazol-4-yl)quinazolin-4-yl)benzo[d]thiazol-6-amine] | 10.1 to 50 | ≤ 10 | 10.1 to 50
2 | Cn1cc(-c2cc(OC3CCN(C4COC4)CC3)c3c(Nc4ccc5ncsc5c4)ncnc3c2)cn1 [Example 318, N-(7-(1-methyl-1H-pyrazol-4-yl)-5-((1-(oxetan-3-yl)piperidin-4-yl)oxy)quinazolin-4-yl)benzo[d]thiazol-6-amine] | ≤ 10 | ≤ 10 | ≤ 10
3 | CCN1CCC(Oc2cc(-c3cnn(C)c3)cc3ncnc(Nc4ccc5ncsc5c4)c23)C1=O (racemic) [Example 58, (rac)-3-((4-(benzo[d]thiazol-6-ylamino)-7-(1-methyl-1H-pyrazol-4-yl)quinazolin-5-yl)oxy)-1-ethylpyrrolidin-2-one] | ≤ 10 | ≤ 10 | ≤ 10
4 | Cn1cc(-c2cc(OC3CCN(CC(F)F)CC3)c3c(Nc4ccc5ncsc5c4)ncnc3c2)cn1 [Example 311, N-(5-((1-(2,2-difluoroethyl)piperidin-4-yl)oxy)-7-(1-methyl-1H-pyrazol-4-yl)quinazolin-4-yl)benzo[d]thiazol-6-amine] | ≤ 10 | ≤ 10 | ≤ 10
5 | CN1C[C@H](Oc2cc(-c3cnn(C)c3)cc3ncnc(Nc4ccc5ncsc5c4)c23)[C@@H](F)C1 [Example 383, N-(5-(((3S,4S)-4-fluoro-1-methylpyrrolidin-3-yl)oxy)-7-(1-methyl-1H-pyrazol-4-yl)quinazolin-4-yl)benzo[d]thiazol-6-amine] | ≤ 10 | ≤ 10 | 10.1 to 50
6 | C[C@@H](Oc1cc(-c2cnn(C)c2)cc2ncnc(Nc3ccc4ncsc4c3)c12)[C@H](C)N(C)C (single isomer, unassigned) [Example 144] | 10.1 to 50 | ≤ 10 | 10.1 to 50
7 | Cn1cc(-c2cc(O[C@H]3CNC[C@H](F)C3)c3c(Nc4ccc5ncsc5c4)ncnc3c2)cn1 (racemic) [Example 331, trans-N-(5-(((3R,5R)-5-fluoropiperidin-3-yl)oxy)-7-(1-methyl-1H-pyrazol-4-yl)quinazolin-4-yl)benzo[d]thiazol-6-amine and N-(5-(((3S,5S)-5-fluoropiperidin-3-yl)oxy)-7-(1-methyl-1H-pyrazol-4-yl)quinazolin-4-yl)benzo[d]thiazol-6-amine] | ≤ 10 | ≤ 10 | ≤ 10
8 | C[C@@H]1CNCCN1c1cc(O[C@H](C)C2COC2)c2c(Nc3ccc4ncsc4c3F)ncnc2c1 (single isomer, unassigned) [Example 104] | ≤ 10 | ≤ 10 | 10.1 to 50
9 | Cn1cc(-c2cc(O[C@H]3CCOC[C@@H]3F)c3c(Nc4ccc5ncsc5c4)ncnc3c2)cn1 (single isomer, unassigned) [Example 45] | ≤ 10 | ≤ 10 | 10.1 to 50
10 | CN1CC[C@H](Oc2cc(-c3cnn(C)c3)cc3ncnc(Nc4ccc5ncsc5c4)c23)C[C@H]1CO [Example A07, ((2S,4S)-4-((4-(benzo[d]thiazol-6-ylamino)-7-(1-methyl-1H-pyrazol-4-yl)quinazolin-5-yl)oxy)-1-methylpiperidin-2-yl)methanol] | ≤ 10 | ≤ 10 | 10.1 to 50
11 | Cn1cc(-c2cc(OC(CO)CO)c3c(Nc4ccc5ncsc5c4)ncnc3c2)cn1 [Example 29, 2-((4-(benzo[d]thiazol-6-ylamino)-7-(1-methyl-1H-pyrazol-4-yl)quinazolin-5-yl)oxy)propane-1,3-diol] | ≤ 10 | ≤ 10 | 10.1 to 50
12 | CC(Oc1cc(-c2cnn(C)c2)cc2ncnc(Nc3ccc4ncsc4c3)c12)C(F)F (racemic) [Example 51, (rac)-N-(5-((1,1-difluoropropan-2-yl)oxy)-7-(1-methyl-1H-pyrazol-4-yl)quinazolin-4-yl)benzo[d]thiazol-6-amine] | ≤ 10 | ≤ 10 | ≤ 10
13 | CN1CC[C@@H]2CN(C(=O)Nc3cc4c(Nc5ccc6ncsc6c5)ncnc4cc3-c3ccn(C)n3)C[C@@H]21 [Example 252, (3aR,6aR)-N-(4-(benzo[d]thiazol-6-ylamino)-7-(1-methyl-1H-pyrazol-3-yl)quinazolin-6-yl)-1-methylhexahydropyrrolo[3,4-b]pyrrole-5(1H)-carboxamide] | ≤ 10 | ≤ 10 | ≤ 10
14 | CN1CCC(n2cc(-c3cc4ncnc(Nc5ccc6ncsc6c5F)c4cc3F)cn2)CC1 [Example 356, 7-fluoro-N-(6-fluoro-7-(1-(1-methylpiperidin-4-yl)-1H-pyrazol-4-yl)quinazolin-4-yl)benzo[d]thiazol-6-amine] | ≤ 10 | ≤ 10 | ≤ 10
15 | Cn1cc(-c2cc(OCC(=O)N3CC4(COC4)C3)c3c(Nc4ccc5ncsc5c4)ncnc3c2)cn1 [Example 270, 2-((4-(benzo[d]thiazol-6-ylamino)-7-(1-methyl-1H-pyrazol-4-yl)quinazolin-5-yl)oxy)-1-(2-oxa-6-azaspiro[3.3]heptan-6-yl)ethan-1-one] | ≤ 10 | ≤ 10 | 10.1 to 50
16 | Cn1cc(-c2cc(OC[C@]34COC[C@H]3C4)c3c(Nc4ccc5ncsc5c4)ncnc3c2)cn1 (single isomer, unassigned) [Example 148] | ≤ 10 | ≤ 10 | 10.1 to 50
17 | C[C@H](CN(C)C)Oc1cc(N2CCOCC2)cc2ncnc(Nc3ccc4ncsc4c3F)c12 [Example 183, (R)-N-(5-((1-(dimethylamino)propan-2-yl)oxy)-7-morpholinoquinazolin-4-yl)-7-fluorobenzo[d]thiazol-6-amine] | 10.1 to 50 | ≤ 10 | 10.1 to 50
18 | C[C@@H](Oc1cc(-c2cnn(C)c2)cc2ncnc(Nc3ccc4ncsc4c3F)c12)C(=O)N(C)C (single isomer, unassigned) [Example 279] | ≤ 10 | ≤ 10 | ≤ 10
19 | Cn1cc(-c2cc(O[C@H]3CC[C@@H](O)CC3)c3c(Nc4ccc5ncsc5c4)ncnc3c2)cn1 [Example 11, (1s,4s)-4-((4-(benzo[d]thiazol-6-ylamino)-7-(1-methyl-1H-pyrazol-4-yl)quinazolin-5-yl)oxy)cyclohexan-1-ol] | ≤ 10 | ≤ 10 | ≤ 10
20 | Cn1cc(-c2cc(O[C@@H]3CNC[C@H](F)C3)c3c(Nc4ccc5ncsc5c4)ncnc3c2)cn1 (single isomer, unassigned) [Example 334] | ≤ 10 | ≤ 10 | 10.1 to 50
21 | Cn1cc(-c2cc(O[C@@H]3CNC[C@@H]3F)c3c(Nc4ccc5ncsc5c4)ncnc3c2)cn1 (racemic) [Example 379, N-(5-(((3R,4S)-4-fluoropyrrolidin-3-yl)oxy)-7-(1-methyl-1H-pyrazol-4-yl)quinazolin-4-yl)benzo[d]thiazol-6-amine] | 10.1 to 50 | ≤ 10 | > 50.1
22 | COC[C@@H](C)Oc1cc(-n2cc([C@@H](C)O)cn2)cc2ncnc(Nc3ccc4ncsc4c3F)c12 (single isomer, unassigned) [Example A19] | ≤ 10 | ≤ 10 | ≤ 10
23 | Cn1cc(-c2cc(OC3(C)CC3)c3c(Nc4ccc5ncsc5c4)ncnc3c2)cn1 [Example 57, N-(7-(1-methyl-1H-pyrazol-4-yl)-5-(1-methylcyclopropoxy)quinazolin-4-yl)benzo[d]thiazol-6-amine] | ≤ 10 | ≤ 10 | ≤ 10
24 | COC[C@@H](C)Oc1cc(N2CCN(CCO)CC2)cc2ncnc(Nc3ccc4ncsc4c3)c12 [Example 196, (R)-2-(4-(4-(benzo[d]thiazol-6-ylamino)-5-((1-methoxypropan-2-yl)oxy)quinazolin-7-yl)piperazin-1-yl)ethan-1-ol] | ≤ 10 | ≤ 10 | 10.1 to 50
25 | COc1nn(C)cc1-c1cc(O[C@H]2CCN(C)C[C@H]2F)c2c(Nc3ccc4ncsc4c3)ncnc2c1 [Example 364, N-(5-(((3R,4S)-3-fluoro-1-methylpiperidin-4-yl)oxy)-7-(3-methoxy-1-methyl-1H-pyrazol-4-yl)quinazolin-4-yl)benzo[d]thiazol-6-amine] | ≤ 10 | ≤ 10 | ≤ 10
26 | C[C@@H]1CN(c2cc(O[C@@H](C)CN(C)C)c3c(Nc4ccc5ncsc5c4)ncnc3c2)C[C@H](C)O1 (single isomer, unassigned) [Example 149] | > 50.1 | 10.1 to 50 | 10.1 to 50
27 | COCC[C@@H](C)Oc1cc(-c2cnn(C)c2)cc2ncnc(Nc3ccc4ncsc4c3F)c12 (single isomer, unassigned) [Example 108] | ≤ 10 | ≤ 10 | ≤ 10
28 | COCCOc1cc(O[C@H](C)C2COC2)c2c(Nc3ccc4ncsc4c3)ncnc2c1 [Example 126, (R)-N-(7-(2-methoxyethoxy)-5-(1-(oxetan-3-yl)ethoxy)quinazolin-4-yl)benzo[d]thiazol-6-amine] | ≤ 10 | ≤ 10 | ≤ 10
29 | C[C@H](CO)Oc1cc(-c2cnn(C)c2)cc2ncnc(Nc3ccc4ncsc4c3F)c12 (single isomer, unassigned) [Example 289] | ≤ 10 | ≤ 10 | ≤ 10
